Assay results as given in US20180000085A1, “USE OF PICOLINAMIDE COMPOUNDS WITH FUNGICIDAL ACTIVITY” (DOW AGROSCIENCES LLC, priority 2014, published 2018).

How the values were obtained:
Zymoseptoria tritici = experiment: Leaf blotch of wheat (SEPTTR) disease control on wheat seedlings; type: in vivo; parameters: key to SEPTTR 1DP, HV activity at 100 ppm (% control rating) / SEPTTR 3DC, HV activity at 100 ppm (% control rating) / SEPTTR disease control, 1DP / SEPTTR disease control, 3DC / SEPTTR 1DP disease control rating, HV activity / SEPTTR 3DC disease control rating, HV activity / SEPTTR 3DC, LV activity at 125.1 g/H (% Control rating) / SEPTTR 1DP, LV activity at 125.1 g/H (% Control rating) / SEPTTR 1DP disease control rating, LV activity at 125.1 g/H / SEPTTR 3DC disease control rating, LV activity at 125.1 g/H / SEPTTR 3DC disease control rating, HV activity at 100 ppm / SEPTTR 1DP disease control rating, HV activity at 100 ppm / HV activity at 100 ppm SEPTTR 3DC (disease control rating) / HV activity at 100 ppm SEPTTR 1DP (disease control rating) / LV activity at 125.1 g/H SEPTTR 1DP (disease control rating) / LV activity at 125.1 g/H SEPTTR 3DC (disease control rating): A: > 80; B: ≤ 80; C: Not Tested; D: No Activity Observed in the Reported Assay; conditions: for SEPTTR 1DP disease control rating, HV activity / SEPTTR 3DC disease control rating, HV activity: HV application at 100 ppm
Puccinia triticina = experiment: Wheat brown rust (PUCCRT) disease control on wheat seedlings; type: in vivo; conditions: for PUCCRT 1DP disease control rating, HV activity / PUCCRT 3DC disease control rating, HV activity: HV application at 100 ppm
[1] = low volume application, 125.1 g/H, 1 Day Protectant
[2] = low volume application, 125.1 g/H, 3 Day Curative
[3] = low volume application, 125.1 g/H, 1 day protectant
[4] = low volume application, 125.1 g/H, 3 day curative
[5] = 1 Day Protectant, wheat leaf blotch
[6] = 3 Day Curative, wheat leaf blotch
[7] = 1 Day Protectant, wheat brown rust
[8] = 3 Day Curative, wheat brown rust
[9] = high volume application, 100 ppm, 1 day protectant
[10] = high volume application, 100 ppm, 3 day curative

`CCC(CCOC)C(Oc1ccccc1)C(C)OC(=O)C(C)NC(=O)c1nccc(OC)c1OC(C)=O` (stereo not shown) [Cmpd 481] was tested, and the “SEPTTR 1DP, LV activity at 125.1 g/H (% Control rating)” value (Zymoseptoria tritici; [1]) was “B (≤ 80)”, the “SEPTTR 3DC, LV activity at 125.1 g/H (% Control rating)” value (Zymoseptoria tritici; [2]) was “A (> 80)” and the “PUCCRT 1DP, LV activity at 125.1 g/H (% Control rating)” value (Puccinia triticina; [1]) was “A (> 80)”. The “PUCCRT 3DC, LV activity at 125.1 g/H (% Control rating)” value (Puccinia triticina; [2]) was “A (> 80)”.
`COc1ccnc(C(=O)NC(C)C(=O)OC(C)C(Oc2ccccc2)c2ccc(-c3ccccc3)cc2)c1OCOC(C)=O` (stereo not shown) [Cmpd 905] was tested, and the “SEPTTR 1DP disease control rating, LV activity at 125.1 g/H” value (Zymoseptoria tritici; [3]) was “A (> 80)”, the “SEPTTR 3DC disease control rating, LV activity at 125.1 g/H” value (Zymoseptoria tritici; [4]) was “A (> 80)” and the “PUCCRT 1DP disease control rating, LV activity at 125.1 g/H” value (Puccinia triticina; [3]) was “A (> 80)”. The “PUCCRT 3DC disease control rating, LV activity at 125.1 g/H” value (Puccinia triticina; [4]) was “B (≤ 80)”.
With `CC[C@@H](CCC(C)C)[C@H](OCC1CC1)[C@H](C)OC(=O)[C@H](C)NC(=O)c1nccc(OC)c1OC(C)=O` [Cmpd 504] the “SEPTTR 1DP, LV activity at 125.1 g/H (% Control rating)” value (Zymoseptoria tritici; [1]) was “B (≤ 80)”, the “SEPTTR 3DC, LV activity at 125.1 g/H (% Control rating)” value (Zymoseptoria tritici; [2]) was “B (≤ 80)” and the “PUCCRT 1DP, LV activity at 125.1 g/H (% Control rating)” value (Puccinia triticina; [1]) was “A (> 80)”. The “PUCCRT 3DC, LV activity at 125.1 g/H (% Control rating)” value (Puccinia triticina; [2]) was “A (> 80)”.
In the case of `COc1ccnc(C(=O)N[C@@H](C)C(=O)O[C@@H](C)[C@@H](Cc2ccccc2)OCC(C)C)c1O` [Cmpd 343], the “SEPTTR 1DP disease control rating, HV activity” value (Zymoseptoria tritici; [5]) is reported as “A (> 80)”, the “SEPTTR 3DC disease control rating, HV activity” value (Zymoseptoria tritici; [6]) is reported as “B (≤ 80)” and the “PUCCRT 1DP disease control rating, HV activity” value (Puccinia triticina; [7]) is reported as “A (> 80)”. The “PUCCRT 3DC disease control rating, HV activity” value (Puccinia triticina; [8]) was “A (> 80)”.
In the case of `COc1ccnc(C(=O)NC(C)C(=O)OC(C)C(Oc2ccc(C)cc2Cl)C2CCCC2)c1OCOC(C)=O` (stereo not shown) [Cmpd 913], the “SEPTTR 1DP disease control rating, LV activity at 125.1 g/H” value (Zymoseptoria tritici; [3]) is reported as “D”, the “SEPTTR 3DC disease control rating, LV activity at 125.1 g/H” value (Zymoseptoria tritici; [4]) is reported as “B (≤ 80)” and the “PUCCRT 1DP disease control rating, LV activity at 125.1 g/H” value (Puccinia triticina; [3]) is reported as “A (> 80)”. The “PUCCRT 3DC disease control rating, LV activity at 125.1 g/H” value (Puccinia triticina; [4]) was “B (≤ 80)”.
With `COc1ccnc(C(=O)N[C@@H](C)C(=O)O[C@@H](C)[C@H](Oc2ccc(C)cc2)C(C)(C)C)c1OC(C)=O` [Cmpd 1059] the “LV activity at 125.1 g/H SEPTTR 1DP (disease control rating)” value (Zymoseptoria tritici; low volume application, 125.1 g/H, 1 Day Protectant, wheat leaf blotch) was “B (≤ 80)”, the “LV activity at 125.1 g/H SEPTTR 3DC (disease control rating)” value (Zymoseptoria tritici; low volume application, 125.1 g/H, 3 Day Curative, wheat leaf blotch) was “B (≤ 80)” and the “LV activity at 125.1 g/H PUCCRT 1DP (disease control rating)” value (Puccinia triticina; low volume application, 125.1 g/H, 1 Day Protectant, wheat brown rust) was “A (> 80)”. The “LV activity at 125.1 g/H PUCCRT 3DC (disease control rating)” value (Puccinia triticina; low volume application, 125.1 g/H, 3 Day Curative, wheat brown rust) was “A (> 80)”.
`CC[C@H](NC(=O)c1nccc(OC)c1O)C(=O)O[C@@H](C)[C@@H](COc1ccccc1)Oc1ccccc1` [Cmpd 316] was tested, and the “SEPTTR 1DP disease control rating, HV activity” value (Zymoseptoria tritici; [5]) was “B (≤ 80)”, the “SEPTTR 3DC disease control rating, HV activity” value (Zymoseptoria tritici; [6]) was “B (≤ 80)” and the “PUCCRT 1DP disease control rating, HV activity” value (Puccinia triticina; [7]) was “A (> 80)”. The “PUCCRT 3DC disease control rating, HV activity” value (Puccinia triticina; [8]) was “A (> 80)”.
For `COc1ccnc(C(=O)N[C@@H](C)C(=O)O[C@@H](C)[C@H](Oc2cccc(F)c2)C2CCCC2)c1O` [Cmpd 839], the “SEPTTR 1DP disease control rating, HV activity at 100 ppm” value (Zymoseptoria tritici; [9]) was “B (≤ 80)”, the “SEPTTR 3DC disease control rating, HV activity at 100 ppm” value (Zymoseptoria tritici; [10]) was “B (≤ 80)” and the “PUCCRT 1DP disease control rating, HV activity at 100 ppm” value (Puccinia triticina; [9]) was “A (> 80)”. For the same compound, the “PUCCRT 3DC disease control rating, HV activity at 100 ppm” value (Puccinia triticina; [10]) was “A (> 80)”.
With `COc1ccnc(C(=O)N[C@@H](C)C(=O)O[C@@H](C)[C@@H](OC(=O)c2ccccc2)C(C)C)c1OCOC(C)=O` [Cmpd 851] the “SEPTTR 1DP disease control rating, LV activity at 125.1 g/H” value (Zymoseptoria tritici; [3]) was “D”, the “SEPTTR 3DC disease control rating, LV activity at 125.1 g/H” value (Zymoseptoria tritici; [4]) was “D” and the “PUCCRT 1DP disease control rating, LV activity at 125.1 g/H” value (Puccinia triticina; [3]) was “B (≤ 80)”. For the same compound, the “PUCCRT 3DC disease control rating, LV activity at 125.1 g/H” value (Puccinia triticina; [4]) was “B (≤ 80)”.
With `COc1ccnc(C(=O)NC(C)C(=O)OC(C)C(Oc2ccccc2)c2ccccc2)c1OCOC(C)=O` (stereo not shown) [Cmpd 872] the “SEPTTR 1DP disease control rating, LV activity at 125.1 g/H” value (Zymoseptoria tritici; [3]) was “A (> 80)”, the “SEPTTR 3DC disease control rating, LV activity at 125.1 g/H” value (Zymoseptoria tritici; [4]) was “A (> 80)” and the “PUCCRT 1DP disease control rating, LV activity at 125.1 g/H” value (Puccinia triticina; [3]) was “A (> 80)”. The “PUCCRT 3DC disease control rating, LV activity at 125.1 g/H” value (Puccinia triticina; [4]) was “A (> 80)”.
